The source of these data is PubChem BioAssay (NCI).

The structures appear in SMILES notation.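 Assay format: 96-well plates, 48-hour exposure. Abbreviation: GI50, concentration required for 50% inhibition of growth. Definition used: TGI = concentration required for complete inhibition of growth.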 Bounds are passed on as bounds.

Holding throughout (assay): growth of human tumour cells (NCI), 48 h
Test [1] relates to DMS 273 small cell lung.
For test [2], the system named is DMS 114 small cell lung.
In test [3] the test system is SNB-78 CNS.
Test [4] relates to HOP-18 NSCLC.
Test [5] relates to DLD-1 colon.
Test [6] concerns LXFL 529 NSCLC.
The subject of test [7] is XF 498 CNS.
The subject of test [8] is RXF-631 renal.
Test [9] has as its system MDA-N.

Turning to `Cc1c(C(=O)CC(=O)C(=O)Nc2ccc(Cl)cc2)[n+](=O)c2ccccc2n1[O-]`, the TGI in test [1], in test [2], in test [3], in [4], in [5] and in test [6] was more than 100 µM in each case. The TGI in [7] was more than 100 µM.
As to `Cc1ccc(NC(=O)C(=O)CC(=O)c2c(C)n([O-])c3ccccc3[n+]2=O)cc1`, the TGI in test [1] was 59.6 µM; in [2], 38.5 µM; in test [3], more than 100 µM; in test [4], more than 100 µM; in [6], more than 100 µM; in test [8], more than 100 µM.
For the compound `COc1ccc(S(=O)(=O)N/N=C/c2cc(I)cc([N+](=O)[O-])c2O)cc1OC`, the TGI in test [1] is more than 100 µM; in [3] it was 65.1 µM; in [4], 68.5 µM; in test [5], more than 100 µM; in test [6], 70.3 µM; in test [8] it was more than 100 µM. In test [7], this compound displayed a TGI of 51.1 µM.
Take `COc1ccccc1C1c2cc3c(cc2OC(O)(CO)C1C(=O)O)OCO3` (stereo unspecified) (tested in a mixture with another compound): the TGI in test [1], in test [2], in test [3], in test [4], in test [5] and in test [6] was more than 100 µM each time.
Regarding `COc1ccc(CC(=O)NCCc2ccc(OC)c(OC)c2)cc1Br`, the TGI in test [1], in [2], in test [5], in [6] and in test [7] was more than 100 µM each time.
`Cc1cc(Cc2cc(C)cc(C(C)(C)C)c2O)c(O)c(Cc2cc(C)cc(C(C)(C)C)c2O)c1`: in test [9], the TGI turned out to be 11.9 µM.
On the same count and under the same terms, in the case of `O=C(O)c1cc(-c2ccncc2)nc2ccccc12` it was more than 100 µM; in that of `CC(=O)OCC(=O)[C@@]12OC(C)(C)O[C@@H]1C[C@H]1[C@@H]3CC=C4C[C@@H](O)CC[C@]4(C)[C@H]3CC[C@@]12C`, more than 100 µM.
For the compound `CN1CC[C@]2(C)c3cc(O)ccc3CC3CCCC1C32C` (stereo partly specified), the TGI in test [2], in test [3], in test [4], in test [5], in test [6] and in test [8] was more than 100 µM each time. For the same compound, the TGI in test [7] is more than 100 µM.
On to `C=C1C(=O)OC2C=C(CCC(C)=O)C(C)C(OC(C)=O)CC12` (stereo unspecified), for which the TGI stood at 27.4 µM in test [3], 24.1 µM in test [4], 1.67 µM in test [6] and 26.1 µM in test [7].
`O=C1C2C(c3ccccc3)NC(c3ccccc3)C1C(c1ccccc1)NC2c1ccccc1` (stereo unspecified) came in with a TGI in [9] of more than 100 µM.
Still for that read-out and setting: in the case of `O=c1oc2cc(N=Cc3ccc4c(c3)OCO4)ccc2c2ccccc12` it was more than 100 µM.
`NC1=C(c2nc(-c3ccccc3)cs2)C(c2ccc(Br)cc2)c2c(c3ccccc3oc2=O)O1` (stereo unspecified): in test [9], the GI50 was 63.7 µg/mL and the TGI was more than 150 µg/mL.
For `Nc1c([N+](=O)[O-])cc2c3c(cccc13)CC2`, the TGI in test [9] was more than 100 µM.
Regarding `CN(C)CCNC(=O)c1cccc2[nH]c(-c3cccnc3)nc12`, the TGI in test [1] is 74.4 µM; in test [3], more than 100 µM; in test [4], 84 µM; in test [5] it was 73.1 µM.
`O=[N+]([O-])c1cc(C2SCc3nc4ccccc4n32)ccc1Cl` (stereo unspecified): the TGI in test [1] is 58 µM; in [2] it was 54.3 µM; in test [3], 80.1 µM; in [4] it was more than 100 µM; in [5] it was more than 100 µM; in [6] it was 99.7 µM.
Take `O=C(O)CNS(=O)(=O)c1ccc(NC(=O)CI)cc1`: the TGI was 38.8 µM in test [1]; more than 100 µM in test [4]; 60.7 µM in test [5]; 20.2 µM in test [6]; 32.5 µM in test [8]; 29.5 µM in [7].
As for `O=C(O)CCSC(=O)Nc1ccccc1F`, the TGI in test [1], in test [2], in test [3] and in [6] was more than 100 µM each time.
For `C[N+]1(C)C/C(=C\c2ccccc2)C(=O)/C(=C/c2ccccc2)C1`, the TGI in test [1], in test [2], in test [3], in test [4], in test [5] and in [6] was more than 100 µM in each case. Moreover, the TGI in test [8] and in test [7] was more than 100 µM in each case.
With `CCN(CC)CCn1c2ccccc2c(=O)c2c(O)ccc(O)c21`, the TGI was more than 100 µM in [1]; 41 µM in [2]; more than 60.2 µM in test [3]; 41.7 µM in test [6]; more than 66.8 µM in test [8]; 34.4 µM in test [9]. The compound also came in with a TGI in test [7] of 44.2 µM.
Regarding `C/C=C1/CCC2c3[nH]c4ccccc4c3CCN2C1` (stereo unspecified), the TGI in test [1], in test [2], in test [3], in test [5], in test [6] and in test [7] was more than 100 µM in each case.
`c1ccc2cc3[s+]snc3cc2c1`: the TGI in [1], in test [3], in [4], in test [5], in test [6] and in test [8] was more than 100 µM each time. Besides, the TGI in test [7] was more than 100 µM.
As for `O=C1CCCC(=O)N1CCc1c[nH]c2ccccc12`, the TGI in test [1], in test [2], in test [3], in [5], in test [6] and in test [8] was more than 100 µM in each case. In [7], this compound displayed a TGI of more than 100 µM.
Regarding `Fc1ccccc1C1SCc2nc3ccccc3n21` (stereo unspecified), the TGI in test [1], in test [2], in test [3], in [5], in test [6] and in test [8] was more than 100 µM in each case.
On to `NCCN.NCCN.O=C([O-])CCl.O=C([O-])CCl.[Co+3].[O-][Cl+3]([O-])([O-])[O-]`, for which the GI50 in [3], in [5] and in test [6] was more than 100 µM in each case. Besides, the TGI in test [3], in test [5] and in [6] was more than 100 µM each time.
Consider `CC(C)c1c(O)ccc2c1CCC1C(C)(C)CCCC21C` (stereo unspecified), for which, in test [9], the TGI was found to be 32.3 µM.
For the compound `Cc1ccc([N+](=O)[O-])cc1NC(=O)c1cccc([N+](=O)[O-])c1O`, the TGI in test [1] was 76.4 µM; in test [2], 43.2 µM; in [3], 80.7 µM; in [5], more than 100 µM; in [6] it was 78.1 µM; in [7], 63.2 µM.
As to `CNC(=O)CC1NC(=O)c2csc(n2)-c2ccc(-c3nc(C4=NC(C(=O)N5CCCC5C(N)=O)CO4)cs3)nc2-c2csc(n2)-c2csc(n2)C(C(C)C)NC(=O)CNC(=O)c2csc(n2)C(C(C)C)NC(=O)c2nc1sc2C` (stereo unspecified), the GI50 in [9] was less than 0.001 µM.
With `COc1ccc(C(=O)/C=C/c2ccc3c(c2)OCO3)c(OCc2ccccc2)c1`, the TGI in test [9] is more than 100 µM.
On the same count and under the same terms, in the case of `O=C(O)C1C(C(=O)O)C23CC2(C(=O)O)C2(C(=O)O)CCC3=C3CCCC312` (stereo unspecified) it was 89.2 µM; in that of `CN(C)CCCN1c2ccccc2C(C)(C)c2ccccc21`, 27.6 µM.
In the case of `Cc1[nH]c(=O)n2c(C)nnc2c1C(=O)Nc1cc(Cl)cc(Cl)c1`, the values for the TGI in test [3], in test [5] and in [6] were 69.6 µM, more than 100 µM and more than 100 µM, respectively.
Regarding `Cc1cc(NS(=O)(=O)c2ccc(NC(=O)c3ccc(Cl)c4c(Nc5ccc(S(=O)(=O)N=C(N)N)cc5)c5ccccc5nc34)cc2)no1`, the TGI in [2] was more than 100 µM; in test [3], more than 100 µM; in test [5], more than 100 µM; in [6] it was more than 100 µM; in test [7], 98.8 µM.
